Data taken from US9346781B2, “Therapeutic compounds” (UNIVERSITY OF IOWA RESEARCH FOUNDATION, priority 2012, dated 2016).

Experiments:
HT29 = assay: MTT cell viability assay, HT29; assay type: cell-based, human
Experimental: (§1) FIG. 1 Illustrates results generated when HT29, A375SM, MEL624, SK-MEL-2, H1299, HCT116, Raji, HL60 and MDA-MB231 cells were treated with log-scale serial diluted concentrations of truncated superstolide A (Compound 3) from 1 to 3000 nM for 72 hours and the effect of truncated superstolide A on cell death was measured by performing a MTT assay.
(§2) Cell Viability Assay: The antiproliferative effect of compound 3 was determined by performing 3-(4,5-dimethylthiazol-2-yl)-2,5-diphenyltetrazolim (MTT) assay. Briefly, cancer cells at varying concentrations—2,000 cells/well (A375SM, MEL624 and SK-MEL-2,) and 5,000 cells/well (HT29, H1299, and HCT116, Raji, and HL-60)—were seeded onto a 96-well plate in triplicates. […] At the end of the 72 hours period, cells were treated with the MTT reagent (Sigma-Aldrich, M O) and the antiproliferative effect of compound 3 was measured as previously described (Zhou Y, Achanta G, Pelicano H, Gandhi V, Plunkett W, and Huang P (2002). Molecular Pharmacology 61:222-229). […]
(§3) The antiproliferative effect of compound 3 was evaluated in two human colon carcinoma cell lines (HT29, HCT116), three malignant melanoma cell lines (A375SM, MEL624, and SK-MEL-2), one human non-small cell lung carcinoma cell line (H1299), one lymphoma cell line (Raji), one leukemia cell line (HL-60), and one malignant breast cancer cell line (MDA-MB231) using MTT assay. […]

A375SM = assay: MTT cell viability assay, A375SM; assay type: cell-based; details: Homo sapiens, A375-SM, 72 hours, read-out: IC50 (nM), antiproliferative effect
Experimental: as §1, §2, §3

MEL624 = assay: MTT cell viability assay, MEL624; assay type: cell-based; details: 72 hours, read-out: IC50 (nM), antiproliferative effect
Experimental: as §1, §2, §3

SK-MEL-2 = assay: MTT cell viability assay, SK-MEL-2; assay type: cell-based; details: Homo sapiens, 72 hours, read-out: IC50 (nM), antiproliferative effect
Experimental: as §1, §2, §3

H1299 = assay: MTT cell viability assay, H1299; assay type: cell-based; details: Homo sapiens, NCI-H1299, 72 hours, read-out: IC50 (nM), antiproliferative effect
Experimental: as §1, §2, §3

HCT116 = assay: MTT cell viability assay, HCT116; assay type: cell-based; details: Homo sapiens, HCT-116, 72 hours, read-out: IC50 (nM), antiproliferative effect
Experimental: as §1, §2, §3

Raji = assay: MTT cell viability assay, Raji; assay type: cell-based; details: Homo sapiens, 72 hours, read-out: IC50 (nM), antiproliferative effect
Experimental: as §1, §2, §3

HL60 = assay: MTT cell viability assay, HL60; assay type: cell-based; details: Homo sapiens, HL-60, 72 hours, read-out: IC50 (nM), antiproliferative effect
Experimental: as §1, §2, §3

MDA-MB231 = assay: MTT cell viability assay, MDA-MB231; assay type: cell-based; details: Homo sapiens, MDA-MB-231, 72 hours, read-out: IC50 (nM), antiproliferative effect
Experimental: as §1, §2, §3

[1] = test system: the other eight tested cell lines; assay: MTT cell viability assay, other eight tested cell lines (summary); assay type: cell-based; details: Homo sapiens; the other eight tested cell lines (all but HT-29); read-out: IC50 in suppressing tumor cell proliferation
Experimental: Cell Viability Assay: The antiproliferative effect of compound 3 was determined by performing 3-(4,5-dimethylthiazol-2-yl)-2,5-diphenyltetrazolim (MTT) assay. Briefly, cancer cells at varying concentrations—2,000 cells/well (A375SM, MEL624 and SK-MEL-2,) and 5,000 cells/well (HT29, H1299, and HCT116, Raji, and HL-60)—were seeded onto a 96-well plate in triplicates. Following an overnight incubation, the cells were treated with log-scale serially increasing concentrations of compound 3 for 72 hours at 37° C. At the end of the 72 hours period, cells were treated with the MTT reagent (Sigma-Aldrich, M O) and the antiproliferative effect of compound 3 was measured as previously described (Zhou Y, Achanta G, Pelicano H, Gandhi V, Plunkett W, and Huang P (2002). Molecular Pharmacology 61:222-229). The IC50 values correspond to a concentration of compound 3 that inhibits cell viability by 50%.
The antiproliferative effect of compound 3 was evaluated in two human colon carcinoma cell lines (HT29, HCT116), three malignant melanoma cell lines (A375SM, MEL624, and SK-MEL-2), one human non-small cell lung carcinoma cell line (H1299), one lymphoma cell line (Raji), one leukemia cell line (HL-60), and one malignant breast cancer cell line (MDA-MB231) using MTT assay. The data (MTT curves and IC50 tables) are shown in FIG. 1 and in the following Table 1.

NCI-60 cell assay = assay: NCI-60 cell assay; assay type: cell-based; details: leukemia, non-small cell lung cancer, colon cancer, CNS cancer, melanoma, ovarian cancer, renal cancer, prostate cancer, breast cancer
HT-29 cell = details: read-out: IC50, antiproliferative effect; cited from earlier work

Compound: CC(=O)N[C@H](C)[C@@H](O)[C@@H](C)[C@@H]1OC(=O)/C=C/C=C(C)\C=C\[C@]2(C)CCC=C[C@@H]2/C=C(C)/C=C/[C@H]1C [Compound 3]
- potency in suppressing tumor cell proliferation relative to superstolide A (HT29; HT-29 cell, versus parent natural product superstolide A): about seven times more potent
- IC50 (HT29; Homo sapiens, HT-29, HT29, 72 hours, MTT assay, read-out: IC50 (nM), antiproliferative effect): 7.54 nM
- IC50 (A375SM): 36.5 nM
- IC50 (MEL624): 53.1 nM
- IC50 (SK-MEL-2): 63.8 nM
- IC50 (H1299): 56.8 nM
- IC50 (HCT116): 52.7 nM
- IC50 (Raji): 76.7 nM
- IC50 (HL60): 11.8 nM
- IC50 (MDA-MB231): 18 nM
- IC50 [1]: 10 to 70 nM
- activity in NCI-60 cell assay (NCI-60 cell assay): active

Compound: superstolide A
- IC50 (HT-29 cell): 64 nM
